Experimental data taken from BindingDB's records for doi:10.1016/j.bmcl.2004.05.049 (Procyon Biopharma, 2004).

Target: T1, Dimer of Gag-Pol polyprotein [501-599] (Human immunodeficiency virus 1, UniProt P03367)
T1 construct: 501-599
Test: Protease Inhibition Assay
Conditions: pH 4.7; 30 °C
Protocol: HIV-1 protease activity was measured by a continuous fluorometric assay using the internally quenched fluorogenic substrate DABCYL-Ser-Gln-Asn-Tyr-Pro-Ile-Val-Gln-EDANS. The proteolytic activity can be monitored by the increase in fluorescence intensity, and the protease products were analyzed by HPLC.

| SMILES | Ki [nM] |
| --- | --- |
| Cc1ccc(S(=O)(=O)N(CC(C)C)[C@@H](CCCCNC(=O)NCc2ccccn2)C(=O)O)cc1 [(2S)-2-[(4-methylbenzene)(2-methylpropyl)sulfonamido]-6-{[(pyridin-2-ylmethyl)carbamoyl]amino}hexanoic acid] | > 300 |
| Cc1ccc(S(=O)(=O)N(CC(C)C)[C@@H](CCCCNC(=O)N(CCc2ccccc2)Cc2ccccc2)C(=O)O)cc1 [(2S)-6-{[benzyl(2-phenylethyl)carbamoyl]amino}-2-[(4-methylbenzene)(2-methylpropyl)sulfonamido]hexanoic acid] | > 300 |
